How the values were obtained:
RAW 264.7 cells = test: TNF release from RAW 264.7 cells stimulated with HMGB1, mutants or B box peptides (L929 cytotoxicity bioassay); format: cell-based, murine; settings: for TNF release by synthetic B box peptide fragments: synthetic peptide 10 μg/ml, 10 hours (FIG. 3)
Procedure: Murine macrophage-like RAW 264.7 cells (American Type Culture Collection, Rockville, Md.) were cultured in RPMI 1640 medium (Life Technologies, Grand Island, N.Y.) supplemented with 10% fetal bovine serum (Gemini, Catabasas, Calif.), penicillin and streptomycin (Life Technologies) and were used at 90% confluence in serum-free Opti-MEM I medium (Life Technologies, Grand Island, N.Y.). […] Polymyxin B was not used in experiments of synthetic peptide studies.
TNF release was measured by a standard murine fibroblast L929 (ATCC, American Type Culture Collection, Rockville, Md.) cytotoxicity bioassay (Bianchi et al., Journal of Experimental Medicine 183:927-936, 1996) with the minimum detectable concentration of 30 pg/ml. Recombinant mouse TNF was obtained from R&D system Inc., (Minneapolis, Minn.). Murine fibroblast L929 cells (ATCC) were cultured in DMEM (Life Technologies, Grand Island, N.Y.) supplemented with 10% fetal bovine serum (Gemini, Catabasas, Calif.), penicillin (50 units/ml) and streptomycin (50 μg/ml) (Life Technologies) in a humidified incubator with 5% CO2.
The effect of the mutants on TNF release from Murine macrophage-like RAW 264.7 cells (ATCC) was carried out as follows. RAW 264.7 cells were cultured in RPMI 1640 medium (Life Technologies, Grand Island, N.Y.) supplemented with 10% fetal bovine serum (Gemini, Catabasas, Calif.), penicillin and streptomycin (Life Technologies). Polymyxin (Sigma, St. Louis, Mo.) was added at 100 units/ml to suppress the activity of any contaminating LPS. Cells were incubated with 1 μg/ml of full length (wild-type) HMGB1 and each HMGB1 mutant protein in Opti-MEM I medium for 8 hours. Conditioned supernatants (containing TNF which had been released from the cells) were collected and TNF released from the cells was measured by a standard murine fibroblast L929 (ATCC) cytotoxicity bioassay (Bianchi et al., supra) with the minimum detectable concentration of 30 pg/ml. Recombinant mouse TNF was obtained from R & D Systems Inc., (Minneapolis, Minn.) and used as control in these experiments. Data in FIG. 1 are all presented as mean±SEM unless otherwise indicated. (N=6−10).
To further examine the effect of HMGB1 B box on cytokine production, varying amounts of HMGB1 B box were evaluated for the effects on TNF, IL-1B, and IL-6 production in murine macrophage-like RAW 264.7 cells. Conditioned media were harvested and measured for TNF, IL-1β and IL-6 levels. TNF levels were measured as described herein, and IL-1β and IL-6 levels were measured using the mouse IL-1β and IL-6 enzyme-linked immunosorbent assay (ELISA) kits (R&D System Inc., Minneapolis, Minn.) and N>5 for all experiments.
The kinetics of B box-induced TNF release were also examined. TNF release and TNF mRNA expression were measured in RAW 264.7 cells induced by B box polypeptide or GST tag polypeptide only (used as a control (vector)) (10 μg/ml) for 0 to 48 hours. Supernatants were analyzed for TNF protein levels by an L929 cytotoxicity assay (N=3-5) as described herein. For mRNA measurement, cells were plated in 100 mm plates and treated in Opti-MEM I medium containing B box polypeptide or the vector alone for 0, 4, 8, or 24 hours, as indicated in FIG. 2D. The vector only sample was assayed at the 4 hour time point. Cells were scraped off the plate and total RNA was isolated using the RNAzol B method in accordance with the manufacturer's instructions (Tel-Test “B”, Inc., Friendswood, Tex.). TNF (287 bp) was measured by RNase protection assay (Ambion, Austin, Tex.). Equal loading and the integrity of RNA was verified by ethidium bromide staining of the RNA sample on an agarose-formaldehyde gel. […] TNF mRNA expression was maximal at 4 hours and decreased at 8 and 24 hours. […] A similar study was carried out measuring TNF protein released from RAW 264.7 cells 0, 4, 8, 24, 32 or 48 hours after administration of B box or vector only (GST tag), using the L929 cytotoxicity assay described herein. […]

[1] = biological target: RAGE on RAW 264.7 cells (mouse (murine RAW 264.7 cells)) (UniProt Q62151); test: cell-based or functional assay
Chain of RAGE on RAW 264.7 cells (mouse (murine RAW 264.7 cells)) (Q62151 23-402): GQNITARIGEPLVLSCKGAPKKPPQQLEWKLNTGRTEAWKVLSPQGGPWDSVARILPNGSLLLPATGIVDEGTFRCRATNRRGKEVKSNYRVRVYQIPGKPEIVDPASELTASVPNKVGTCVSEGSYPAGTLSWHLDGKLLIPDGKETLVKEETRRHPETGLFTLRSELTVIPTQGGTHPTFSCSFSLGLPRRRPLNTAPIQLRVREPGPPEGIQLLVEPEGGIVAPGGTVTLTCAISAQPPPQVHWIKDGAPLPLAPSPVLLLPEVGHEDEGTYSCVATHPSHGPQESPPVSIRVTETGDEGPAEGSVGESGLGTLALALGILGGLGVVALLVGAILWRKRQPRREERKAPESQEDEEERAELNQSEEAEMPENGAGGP

[2] = biological target: Recombinant full length human HMGB1 (wild type HMGB1) (human); test: cell-based or functional assay

Substance | TNF release by synthetic B box peptide fragments (RAW 264.7 cells) | other results
45-64: Synthetic peptide fragment containing amino acids 45-64 of the HMGB1 B box (SEQ ID NO:20) (WNNTAADDKQPYEKKAAKLK; listed as Homo sapiens) | did not induce TNF release | –
Recombinant full length human HMGB1 (wild type HMGB1) (from UniProt A9RA84 1-215) (ligand) | – | decrease of HMGB1 (1 µg/ml) induced TNF release from RAW 264.7 cells by anti-RAGE antibody (25 µg/ml) [1]: 40%
30-49: Synthetic peptide fragment containing amino acids 30-49 of the HMGB1 B box (SEQ ID NO:20) (PGLSIGDVAKKLGEMWNNTA; listed as Homo sapiens) | did not induce TNF release | –
16-25: Synthetic peptide fragment containing amino acids 16-25 of the HMGB1 B box (SEQ ID NO:20) (LFCSEYRPKI; listed as Homo sapiens) | did not induce TNF release | –
60-74: Synthetic peptide fragment containing amino acids 60-74 of the HMGB1 B box (SEQ ID NO:20) (AAKLKEKYEKDIAAY; listed as Homo sapiens) | did not induce TNF release | –
fkdpnapkrlpsafflfcse (FKDPNAPKRLPSAFFLFCSE; listed as Homo sapiens) [1-20-mer] | TNF-stimulating activity was retained | TNF stimulating potency compared with full length B box and HMGB1 (RAW 264.7 cells; peptide 10 μg/ml vs B box 1 μg/ml, 10 hours): less potent than either the full length synthetic B box (1-74-mer), or full length HMGB1
HMGB1 Amino terminus+A box mutant (human HMGB1 A box polypeptide) (from UniProt A9RA84 1-85) | – | inhibition of HMGB1 (1 µg/ml) induced TNF release from RAW 264.7 cells, L929 cytotoxicity assay [2]: 7.5 µg/mL
